Several values for one entry are separate records, joined by “and”; a condition that tells them apart may be missing. Equal values may be shown once.
Experiments:
MDA-MB-231 = assay: 3D spheroid assay MDA-MB-231; type: cell-based; details: Homo sapiens, 96 h; MDA-MB-231, 2% Matrigel, 4 days treatment; read-out: IC50 3D spheroid cell viability
Method: (§1) Breast cancer cell lines were cultured in medium with or without 2% Matrigel (Corning, NY, USA) for 3 days in each 96-well ultra-low attachment round plate to form a single spheroid at a density of 3 × 10^3 cells/well. SJP1602 was dissolved in DMSO and treated for 4 days at concentrations ranging from 200 nM to 20 μM. Cell viability was quantified according to the manufacturer’s instructions using a CellTiter-Glo 3D cell viability assay (Promega, Madison, WI, USA). Luminescence was measured using the Tecan Spark 10M.

BT-20 = assay: 3D spheroid assay BT-20; type: cell-based; details: Homo sapiens, 96 h; BT-20, 4 days treatment; read-out: IC50 3D spheroid cell viability
Method: as §1

BT-549 = assay: 3D spheroid assay BT-549; type: cell-based; details: Homo sapiens, 96 h; BT-549, 4 days treatment; read-out: IC50 3D spheroid cell viability
Method: as §1

Hs578T = assay: 3D spheroid assay Hs578T; type: cell-based; details: Homo sapiens, Hs-578T, 96 h, 4 days treatment, read-out: IC50 3D spheroid cell viability
Method: as §1

Axl(h) = target: T1, Axl(h) (Homo sapiens, UniProt P30530); assay: Eurofins kinase profiling; type: biochemical; details: read-out: residual kinase activity Axl(h)
T1 construct: purchased Eurofins KinaseProfiler
T1 sequence (P30530 26-894): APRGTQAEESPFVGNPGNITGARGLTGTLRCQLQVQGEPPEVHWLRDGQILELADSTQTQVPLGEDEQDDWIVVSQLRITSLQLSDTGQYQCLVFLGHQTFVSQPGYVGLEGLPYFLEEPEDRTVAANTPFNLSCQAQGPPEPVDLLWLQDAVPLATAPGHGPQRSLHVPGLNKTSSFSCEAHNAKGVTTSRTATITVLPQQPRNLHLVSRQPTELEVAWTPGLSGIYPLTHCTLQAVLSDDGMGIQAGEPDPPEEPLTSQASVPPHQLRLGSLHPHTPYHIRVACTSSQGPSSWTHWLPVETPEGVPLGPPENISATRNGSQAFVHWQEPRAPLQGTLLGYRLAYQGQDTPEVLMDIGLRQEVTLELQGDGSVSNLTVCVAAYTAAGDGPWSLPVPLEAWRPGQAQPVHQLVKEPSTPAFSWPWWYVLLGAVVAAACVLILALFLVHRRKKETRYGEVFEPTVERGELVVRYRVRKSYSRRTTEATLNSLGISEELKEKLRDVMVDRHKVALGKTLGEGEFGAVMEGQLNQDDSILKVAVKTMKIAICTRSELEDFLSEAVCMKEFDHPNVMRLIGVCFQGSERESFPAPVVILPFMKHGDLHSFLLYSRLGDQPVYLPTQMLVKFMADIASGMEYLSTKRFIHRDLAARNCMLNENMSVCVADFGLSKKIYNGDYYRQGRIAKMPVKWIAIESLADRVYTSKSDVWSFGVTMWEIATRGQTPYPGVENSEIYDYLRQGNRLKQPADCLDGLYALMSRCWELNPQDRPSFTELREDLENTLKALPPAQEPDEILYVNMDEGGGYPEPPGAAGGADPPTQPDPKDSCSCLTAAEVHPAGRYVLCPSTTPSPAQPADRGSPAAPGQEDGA
Summary of the method: (§2)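 Each kinase is incubated with compound (1 µM). Activity is then determined radiometrically from transfer of labeled phosphate.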

EGFR(L861Q)(h) = target: T2, EGFR(L861Q)(h) (Homo sapiens, UniProt P00533, L861Q); assay: Eurofins kinase profiling; type: biochemical; details: read-out: residual kinase activity EGFR(L861Q)(h)
T2 construct: purchased Eurofins KinaseProfiler
Summary of the method: as §2

EGFR(T790M,L858R)(h) = target: T3, EGFR(T790M,L858R)(h) (Homo sapiens, UniProt P00533, L858R/T790M); assay: Eurofins kinase profiling; type: biochemical; details: read-out: residual kinase activity EGFR(T790M,L858R)(h)
T3 construct: purchased Eurofins KinaseProfiler
Summary of the method: as §2

FGFR3(h) = target: T4, FGFR3(h) (Homo sapiens, UniProt P22607); assay: Eurofins kinase profiling; type: biochemical; details: read-out: residual kinase activity FGFR3(h)
T4 construct: purchased Eurofins KinaseProfiler
Summary of the method: as §2

MAPK2(h) = target: T5, MAPK2(h) (Homo sapiens, UniProt P28482); assay: Eurofins kinase profiling; type: biochemical; details: read-out: residual kinase activity MAPK2(h)
T5 construct: purchased Eurofins KinaseProfiler
Summary of the method: as §2

MELK(h) = target: T6, MELK(h) (Homo sapiens, UniProt Q14680); assay: Eurofins kinase profiling; type: biochemical; details: read-out: residual kinase activity MELK(h)
T6 construct: purchased Eurofins KinaseProfiler
Summary of the method: as §2

[1] = target: T7, PI3 Kinase (p110a(E542K)/p85a)(h) (Homo sapiens, UniProt P42336, E542K); assay: Eurofins kinase profiling; type: biochemical; details: read-out: residual kinase activity PI3 Kinase (p110a(E542K)/p85a)(h)
T7 construct: purchased Eurofins KinaseProfiler
Summary of the method: as §2

Pim-1(h) = target: T8, Pim-1(h) (Homo sapiens, UniProt P11309); assay: Eurofins kinase profiling; type: biochemical; details: read-out: residual kinase activity Pim-1(h)
T8 construct: purchased Eurofins KinaseProfiler
Summary of the method: as §2

BT-549 xenograft = BT-549 xenograft mouse model
Method: (§3) Upon establishment of tumors, with an average tumor volume reaching approximately 100 mm^3, mice were grouped and subjected to daily oral dosing. […] The duration of drug administration was defined for 2 weeks based on the growth rate of the vehicle group of each xenografted tumor. The tumor volume was measured three times a week for potency measurement, and the body weight of mice was also measured three times a week for toxicity evaluation in vivo.

MDA-MB-231 xenograft = MDA-MB-231 xenograft mouse model
Method: as §3

MDA-MB-453 xenograft = MDA-MB-453 xenograft mouse model; details: for TGI: 56 days
Method: as §3

T8 sequence (P11309 whole entry): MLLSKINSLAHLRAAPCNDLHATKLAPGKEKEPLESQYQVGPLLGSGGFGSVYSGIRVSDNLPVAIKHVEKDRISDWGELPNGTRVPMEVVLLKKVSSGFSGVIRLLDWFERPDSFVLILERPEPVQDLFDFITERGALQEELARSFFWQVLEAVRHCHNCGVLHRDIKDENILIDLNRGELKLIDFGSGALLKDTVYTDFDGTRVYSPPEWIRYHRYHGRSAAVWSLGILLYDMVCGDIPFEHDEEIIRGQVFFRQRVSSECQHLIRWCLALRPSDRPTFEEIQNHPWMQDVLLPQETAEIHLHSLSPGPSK
T3 sequence (P00533 25-1210 T790M/L858R): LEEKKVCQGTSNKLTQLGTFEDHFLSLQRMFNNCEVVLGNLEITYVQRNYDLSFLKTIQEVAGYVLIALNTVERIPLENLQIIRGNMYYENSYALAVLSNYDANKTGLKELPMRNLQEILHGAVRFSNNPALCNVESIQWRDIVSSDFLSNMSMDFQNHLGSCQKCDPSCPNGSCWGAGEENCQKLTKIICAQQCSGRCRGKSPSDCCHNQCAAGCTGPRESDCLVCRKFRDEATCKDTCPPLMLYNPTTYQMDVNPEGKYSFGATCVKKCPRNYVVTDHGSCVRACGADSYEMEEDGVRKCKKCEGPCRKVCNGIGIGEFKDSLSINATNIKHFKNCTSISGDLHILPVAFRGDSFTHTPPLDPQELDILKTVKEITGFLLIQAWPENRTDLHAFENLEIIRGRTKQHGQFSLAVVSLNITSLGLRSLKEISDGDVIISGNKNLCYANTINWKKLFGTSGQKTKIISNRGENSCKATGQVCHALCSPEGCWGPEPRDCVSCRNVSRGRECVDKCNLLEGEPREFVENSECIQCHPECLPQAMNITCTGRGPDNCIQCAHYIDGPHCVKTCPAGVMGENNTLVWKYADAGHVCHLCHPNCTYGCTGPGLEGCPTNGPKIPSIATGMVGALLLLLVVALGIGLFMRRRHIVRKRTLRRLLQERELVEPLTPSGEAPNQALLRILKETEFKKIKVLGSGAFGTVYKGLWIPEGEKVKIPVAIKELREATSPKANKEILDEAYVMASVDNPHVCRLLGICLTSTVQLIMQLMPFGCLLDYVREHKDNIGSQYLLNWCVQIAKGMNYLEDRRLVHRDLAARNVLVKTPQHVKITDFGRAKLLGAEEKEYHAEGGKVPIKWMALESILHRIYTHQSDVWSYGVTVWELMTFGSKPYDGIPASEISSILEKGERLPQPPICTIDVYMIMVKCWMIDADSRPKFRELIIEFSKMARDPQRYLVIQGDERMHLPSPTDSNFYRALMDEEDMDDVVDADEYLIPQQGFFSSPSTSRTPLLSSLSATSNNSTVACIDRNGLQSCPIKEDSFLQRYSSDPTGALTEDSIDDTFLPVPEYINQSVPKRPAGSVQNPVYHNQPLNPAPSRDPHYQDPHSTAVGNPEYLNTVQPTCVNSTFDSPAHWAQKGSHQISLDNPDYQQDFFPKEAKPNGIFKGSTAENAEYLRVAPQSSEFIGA
T7 sequence (P42336 whole entry E542K): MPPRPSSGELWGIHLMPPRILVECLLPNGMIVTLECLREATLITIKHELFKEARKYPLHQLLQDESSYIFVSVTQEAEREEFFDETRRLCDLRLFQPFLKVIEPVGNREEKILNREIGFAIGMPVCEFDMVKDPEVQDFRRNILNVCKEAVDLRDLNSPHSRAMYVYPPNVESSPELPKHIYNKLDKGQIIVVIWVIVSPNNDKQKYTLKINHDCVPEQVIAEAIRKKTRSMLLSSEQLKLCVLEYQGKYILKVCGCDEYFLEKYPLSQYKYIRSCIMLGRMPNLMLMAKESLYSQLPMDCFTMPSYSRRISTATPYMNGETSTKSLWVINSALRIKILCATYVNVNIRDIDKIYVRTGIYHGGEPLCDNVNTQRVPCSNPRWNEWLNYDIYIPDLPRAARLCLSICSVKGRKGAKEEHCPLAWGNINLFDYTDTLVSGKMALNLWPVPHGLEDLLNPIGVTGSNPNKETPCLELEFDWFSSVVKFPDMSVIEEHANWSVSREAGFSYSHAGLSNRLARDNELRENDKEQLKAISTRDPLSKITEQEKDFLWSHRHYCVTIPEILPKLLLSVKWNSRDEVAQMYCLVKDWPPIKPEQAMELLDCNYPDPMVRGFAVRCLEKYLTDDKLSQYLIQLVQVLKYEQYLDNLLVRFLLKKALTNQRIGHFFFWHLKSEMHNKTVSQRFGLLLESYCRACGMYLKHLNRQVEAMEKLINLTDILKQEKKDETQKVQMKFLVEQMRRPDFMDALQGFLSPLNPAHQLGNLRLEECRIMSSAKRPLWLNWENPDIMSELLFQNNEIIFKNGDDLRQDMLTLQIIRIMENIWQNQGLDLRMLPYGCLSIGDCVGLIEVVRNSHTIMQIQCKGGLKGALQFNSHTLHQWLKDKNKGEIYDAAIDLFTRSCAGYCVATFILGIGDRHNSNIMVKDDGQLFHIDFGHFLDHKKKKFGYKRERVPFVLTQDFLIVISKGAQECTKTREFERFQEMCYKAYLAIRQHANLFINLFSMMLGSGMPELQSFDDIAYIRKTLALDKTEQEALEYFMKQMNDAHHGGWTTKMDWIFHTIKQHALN
T7 sequence (P27986 whole entry partner): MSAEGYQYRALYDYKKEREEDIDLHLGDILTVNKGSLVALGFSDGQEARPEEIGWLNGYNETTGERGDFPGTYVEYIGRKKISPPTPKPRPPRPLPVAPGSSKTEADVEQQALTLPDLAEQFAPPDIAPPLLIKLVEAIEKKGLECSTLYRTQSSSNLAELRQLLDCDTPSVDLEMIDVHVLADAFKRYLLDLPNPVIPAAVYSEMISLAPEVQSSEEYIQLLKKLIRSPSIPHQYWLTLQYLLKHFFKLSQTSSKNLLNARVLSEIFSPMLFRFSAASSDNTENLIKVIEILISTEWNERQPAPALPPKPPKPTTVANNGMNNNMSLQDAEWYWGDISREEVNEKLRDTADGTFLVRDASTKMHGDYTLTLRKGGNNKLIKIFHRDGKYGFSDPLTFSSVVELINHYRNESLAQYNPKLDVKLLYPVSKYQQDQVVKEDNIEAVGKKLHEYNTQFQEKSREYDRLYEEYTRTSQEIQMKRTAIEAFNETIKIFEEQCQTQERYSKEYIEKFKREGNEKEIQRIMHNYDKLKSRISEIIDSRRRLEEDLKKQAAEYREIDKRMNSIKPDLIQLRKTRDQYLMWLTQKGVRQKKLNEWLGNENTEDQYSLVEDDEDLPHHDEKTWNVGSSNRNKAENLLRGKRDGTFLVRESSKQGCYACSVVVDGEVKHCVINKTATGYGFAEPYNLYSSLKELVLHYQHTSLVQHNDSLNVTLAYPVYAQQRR
T4 sequence (P22607 23-806): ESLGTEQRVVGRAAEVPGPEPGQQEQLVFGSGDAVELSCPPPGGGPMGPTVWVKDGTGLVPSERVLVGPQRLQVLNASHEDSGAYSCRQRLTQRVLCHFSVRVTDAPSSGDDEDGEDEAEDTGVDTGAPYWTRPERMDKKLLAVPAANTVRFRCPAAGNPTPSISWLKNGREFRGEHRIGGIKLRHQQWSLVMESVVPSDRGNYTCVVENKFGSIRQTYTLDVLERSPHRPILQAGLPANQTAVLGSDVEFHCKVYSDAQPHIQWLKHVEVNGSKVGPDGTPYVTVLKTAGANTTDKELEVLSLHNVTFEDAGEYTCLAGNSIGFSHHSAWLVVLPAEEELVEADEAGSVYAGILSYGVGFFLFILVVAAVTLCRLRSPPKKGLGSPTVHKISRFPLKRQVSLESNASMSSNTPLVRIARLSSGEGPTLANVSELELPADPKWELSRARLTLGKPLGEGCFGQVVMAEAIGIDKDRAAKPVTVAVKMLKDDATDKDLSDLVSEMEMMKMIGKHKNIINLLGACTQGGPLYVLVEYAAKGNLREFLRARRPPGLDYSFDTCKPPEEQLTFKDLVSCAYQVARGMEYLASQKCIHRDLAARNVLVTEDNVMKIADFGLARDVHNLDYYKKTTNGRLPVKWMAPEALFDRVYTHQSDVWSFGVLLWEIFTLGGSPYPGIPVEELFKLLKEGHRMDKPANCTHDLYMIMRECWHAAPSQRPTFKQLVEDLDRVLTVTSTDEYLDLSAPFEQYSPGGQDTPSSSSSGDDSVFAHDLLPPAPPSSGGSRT
T5 sequence (P28482 whole entry): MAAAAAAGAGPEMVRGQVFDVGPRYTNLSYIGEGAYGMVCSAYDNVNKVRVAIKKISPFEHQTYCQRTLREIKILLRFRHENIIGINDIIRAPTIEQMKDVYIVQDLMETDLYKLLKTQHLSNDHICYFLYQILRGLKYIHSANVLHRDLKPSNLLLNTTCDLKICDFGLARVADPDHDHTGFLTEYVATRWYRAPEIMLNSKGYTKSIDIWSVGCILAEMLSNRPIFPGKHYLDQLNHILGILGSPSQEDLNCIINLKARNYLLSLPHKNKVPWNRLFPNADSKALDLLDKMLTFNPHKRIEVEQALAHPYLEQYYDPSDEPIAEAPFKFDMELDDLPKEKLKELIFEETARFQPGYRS

| IC50 (MDA-MB-231) | IC50 (BT-20) | IC50 (BT-549) | remaining activity at 1 µM (Axl(h)) | remaining activity at 1 µM (EGFR(L861Q)(h)) | remaining activity at 1 µM (EGFR(T790M,L858R)(h)) | remaining activity at 1 µM (FGFR3(h)) | remaining activity at 1 µM (MAPK2(h)) | remaining activity at 1 µM (MELK(h)) | remaining activity at 1 µM [1] | remaining activity at 1 µM (Pim-1(h)) | Structure (SMILES) | IC50 (Hs578T) | TGI (BT-549 xenograft; 80 mg/kg po QD) | TGI (MDA-MB-453 xenograft; 80 mg/kg po QD) | also measured |
| --- | --- | --- | --- | --- | --- | --- | --- | --- | --- | --- | --- | --- | --- | --- | --- |
| 0.427 µM | > 10 µM | > 10 µM | 57% | 128% | 65% | 44% | 87% | 9% | 104% | 86% | CNC(=O)c1ccc(Nc2ncc(C(F)(F)F)c(NCc3nccnc3N(C)S(C)(=O)=O)n2)cc1 [VS-6063, Defactinib] | 4.49 µM | 10.1% | 110.9% | tumor growth inhibition (in words) (BT-549 xenograft; 80 mg/kg): ineffective; TGI (MDA-MB-231 xenograft; 80 mg/kg po QD, day 14): 54.6% |
| 1.12 µM | > 10 µM | > 10 µM | 84% | 69% | 88% | 91% | 94% | 91% | 97% | 87% | CONC(=O)c1ccccc1Nc1cc(Nc2cc(C)nn2C(C)C)ncc1Cl [GSK2256098] | > 10 µM |  |  |  |

| Structure (SMILES) | IC50 (MDA-MB-231) | IC50 (BT-20) | IC50 (BT-549) | remaining activity at 1 µM (Axl(h)) | remaining activity at 1 µM (EGFR(L861Q)(h)) | remaining activity at 1 µM (EGFR(T790M,L858R)(h)) | remaining activity at 1 µM (FGFR3(h)) | remaining activity at 1 µM (MAPK2(h)) | remaining activity at 1 µM (MELK(h)) | remaining activity at 1 µM [1] | remaining activity at 1 µM (Pim-1(h)) | IC50 (Hs578T) | TGI (BT-549 xenograft; 80 mg/kg po QD) | TGI (MDA-MB-453 xenograft; 80 mg/kg po QD) | also measured |
| --- | --- | --- | --- | --- | --- | --- | --- | --- | --- | --- | --- | --- | --- | --- | --- |
| CNC(=O)c1cccc(C)c1Nc1nc(Nc2ccc(N3CCN(C4C5CC6CC4CC(O)(C6)C5)CC3)cc2OC)ncc1C(F)(F)F (stereo not drawn) [SJP1602, 2-((2-((4-(4-((2s,5r)-5-hydroxyadamantan-2-yl)piperazin-1-yl)-2-methoxyphenyl)amino)-5-(trifluoromethyl)pyrimidin-4-yl)amino)-N,3-dimethylbenzamide] | 0.742 µM | 2.53 µM | 4.71 µM | 105% | 120% | 88% | 86% | 95% | 74% | 101% | 87% | > 10 µM | 77.5% | 114.1% | tumor growth inhibition (in words) (BT-549 xenograft; 20 mg/kg): pronounced inhibition of cancer growth; TGI (BT-549 xenograft; 20 mg/kg po QD): 76.0%; tumor weight (BT-549 xenograft; 80 mg/kg, day 21): did not statistically significantly decrease; TGI (MDA-MB-231 xenograft; 20 mg/kg po QD, day 14, 20 mg/kg): 72% and 72.1%; TGI (MDA-MB-231 xenograft; 40 mg/kg po QD, day 14, 40 mg/kg): 74%; TGI (MDA-MB-231 xenograft; 80 mg/kg po QD, day 14, 80 mg/kg): 81% and 81.3%; tumor mass and weight (MDA-MB-231 xenograft; 80 mg/kg, day 14): significant reduction; TGI (MDA-MB-453 xenograft; 20 mg/kg po QD): 88.9%; tumor volume and weight (MDA-MB-453 xenograft; 80 mg/kg, day 56): substantial reduction |

Source: publication PMC10528299, “Targeting FAK/PYK2 with SJP1602 for Anti-Tumor Activity in Triple-Negative Breast Cancer” (Current Issues in Molecular Biology, 2023)
